Test results: patent publication US20250144094A1 (Erasca, Inc., priority 2021, published 2025)

target: Recombinant human ULK1 (1-649) (Homo sapiens (Human), UniProt O75385); experiment: ULK1 ADP Glo kinase activity assay (MBP substrate); settings: 25° C., 40 minutes, read-out: ULK1 biochemical IC50
Summary of the method: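 GST-tagged ULK1 (1-649) from Sf9 cells phosphorylated MBP, with ATP, for 40 min at 25 °C across a 12-point series from 10 uM. ADP formed was quantified by ADP-Glo luminescence against DMSO controls. IC50 came from a four-parameter variable-slope fit of log concentration.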

Chain of Recombinant human ULK1 (1-649) (O75385 1-649): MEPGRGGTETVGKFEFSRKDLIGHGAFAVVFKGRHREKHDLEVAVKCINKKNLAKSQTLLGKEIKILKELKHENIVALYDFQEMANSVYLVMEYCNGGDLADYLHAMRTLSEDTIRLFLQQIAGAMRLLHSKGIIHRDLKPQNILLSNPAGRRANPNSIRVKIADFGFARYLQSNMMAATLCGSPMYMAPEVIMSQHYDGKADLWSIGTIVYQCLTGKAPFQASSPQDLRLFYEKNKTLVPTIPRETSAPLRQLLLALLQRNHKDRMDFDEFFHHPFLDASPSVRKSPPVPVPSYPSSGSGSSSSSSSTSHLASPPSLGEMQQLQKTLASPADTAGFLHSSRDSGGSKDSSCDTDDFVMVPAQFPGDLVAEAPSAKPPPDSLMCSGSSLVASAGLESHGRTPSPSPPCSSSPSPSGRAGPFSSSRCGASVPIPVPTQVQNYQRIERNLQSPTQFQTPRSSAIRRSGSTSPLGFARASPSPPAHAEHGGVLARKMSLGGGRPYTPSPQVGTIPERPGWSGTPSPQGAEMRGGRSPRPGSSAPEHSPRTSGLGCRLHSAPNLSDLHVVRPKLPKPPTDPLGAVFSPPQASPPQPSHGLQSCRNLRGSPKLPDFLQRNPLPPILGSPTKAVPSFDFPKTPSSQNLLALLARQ

IC50, ≤ 10 nM:
CS(=O)(=O)c1cc(-c2nc(Nc3cc4c(cc3Cl)CNCC4)ncc2C(F)(F)F)sc1C1=CCS(=O)(=O)CC1 [Example 78, 4-(5-(2-((7-chloro-1,2,3,4-tetrahydroisoquinolin-6-yl)amino)-5-(trifluoromethyl)pyrimidin-4-yl)-3-(methylsulfonyl)thiophen-2-yl)-3,6-dihydro-2H-thiopyran 1,1-dioxide]
CN1Cc2cc(F)c(Nc3ncc(C(F)(F)F)c(-c4cc(S(C)(=O)=O)cs4)n3)cc2C1 [Example 80, 6-fluoro-N-[4-(4-methanesulfonylthiophen-2-yl)-5-(trifluoromethyl)pyrimidin-2-yl]-2-methyl-2,3-dihydro-1H-isoindol-5-amine]
O=C1NCCS(=O)(=O)c2cc(-c3nc(Nc4cc5c(cc4Cl)CNCC5)ncc3C(F)(F)F)sc21 [Example 82, 7-[2-[(7-chloro-1,2,3,4-tetrahydroisoquinolin-6-yl)amino]-5-(trifluoromethyl)pyrimidin-4-yl]-1,1-dioxo-3,4-dihydro-2H-thieno[2,3-f][1,4]thiazepin-5-one]
CS(=O)(=O)c1cc(-c2nc(Nc3cc4c(cc3Cl)CNCC4)ncc2C(F)(F)F)sc1N1CCOCC1 [Example 83, 7-Chloro-N-[4-(4-methylsulfonyl-5-morpholino-2-thienyl)-5-(trifluoromethyl)pyrimidin-2-yl]-1,2,3,4-tetrahydroisoquinolin-6-amine]
O=S1(=O)NCCCc2sc(-c3nc(Nc4cc5c(cc4Cl)CNCC5)ncc3C(F)(F)F)cc21 [Example 84, 7-(2-((7-chloro-1,2,3,4-tetrahydroisoquinolin-6-yl)amino)-5-(trifluoromethyl)pyrimidin-4-yl)-2,3,4,5-tetrahydrothieno[2,3-f][1,2]thiazepine 1,1-dioxide]
O=S1(=O)NCCOc2sc(-c3nc(Nc4cc5c(cc4Cl)CNCC5)ncc3C(F)(F)F)cc21 [Example 85, 7-chloro-N-[4-(1,1-dioxo-3,4-dihydro-2H-thieno[2,3-b][1,4,5]oxathiazepin-7-yl)-5-(trifluoromethyl)pyrimidin-2-yl]-1,2,3,4-tetrahydroisoquinolin-6-amine]
CN1CCc2cc(Nc3ncc(C(F)(F)F)c(-c4cc5c(s4)C(=O)NCCS5(=O)=O)n3)c(Cl)cc2C1 [Example 86, 7-(2-((7-chloro-2-methyl-1,2,3,4-tetrahydroisoquinolin-6-yl)amino)-5 (trifluoromethyl)pyrimidin-4-yl)-3,4-dihydrothieno[2,3-f][1,4]thiazepin-5(2H)-one 1,1-dioxide]
CN1CCc2cc(Nc3ncc(C(F)(F)F)c(-c4cc(S(C)(=O)=O)c(C5CCOCC5)s4)n3)c(Cl)cc2C1 [Example 87, 7-chloro-2-methyl-N-(4-(4-(methylsulfonyl)-5-(tetrahydro-2H-pyran-4-yl)thiophen-2-yl)-5-(trifluoromethyl)pyrimidin-2-yl)-1,2,3,4-tetrahydroisoquinolin-6-amine]
CN1Cc2cc(Nc3ncc(C(F)(F)F)c(-c4cc(S(C)(=O)=O)cs4)n3)c(C3CC3)cc2C1 [Example 88, 6-cyclopropyl-N-[4-(4-methanesulfonylthiophen-2-yl)-5-(trifluoromethyl)pyrimidin-2-yl]-2-methyl-2,3-dihydro-1H-isoindol-5-amine]
CS(=O)(=O)c1cc(-c2nc(Nc3cc4c(cc3Cl)CNCC4)ncc2C(F)(F)F)sc1N1CCS(=O)(=O)CC1 [Example 90, 4-(5-(2-((7-chloro-1,2,3,4-tetrahydroisoquinolin-6-yl)amino)-5-(trifluoromethyl)pyrimidin-4-yl)-3-(methylsulfonyl)thiophen-2-yl)thiomorpholine 1,1-dioxide]
CS(=O)(=O)c1csc(-c2nc(Nc3cc4c(cc3F)CNCC4)ncc2C(F)(F)F)c1 [Example 91, 7-fluoro-N-(4-(4-(methylsulfonyl)thiophen-2-yl)-5-(trifluoromethyl)pyrimidin-2-yl)-1,2,3,4-tetrahydroisoquinolin-6-amine]
Cc1cc2c(cc1Nc1ncc(C(F)(F)F)c(-c3cc(S(C)(=O)=O)cs3)n1)CN(C)C2 [Example 92, 2,6-dimethyl-N-(4-(4-(methylsulfonyl)thiophen-2-yl)-5-(trifluoromethyl)pyrimidin-2-yl)isoindolin-5-amine]
CS(=O)(=O)c1csc(-c2nc(Nc3cc4c(cc3Cl)CNCC4)ncc2Cl)c1 [Example 93, 7-chloro-N-(5-chloro-4-(4-(methylsulfonyl)thiophen-2-yl)pyrimidin-2-yl)-1,2,3,4-tetrahydroisoquinolin-6-amine]
Cc1cnc(Nc2cc3c(cc2Cl)CNCC3)nc1-c1cc(S(C)(=O)=O)cs1 [Example 94, 7-chloro-N-(5-methyl-4-(4-(methylsulfonyl)thiophen-2-yl)pyrimidin-2-yl)-1,2,3,4-tetrahydroisoquinolin-6-amine]
CN1CCc2cc(Nc3ncc(C(F)(F)F)c(-c4cc(S(C)(=O)=O)cs4)n3)c(Cl)cc2C1 [Example 95, 7-chloro-2-methyl-N-(4-(4-(methylsulfonyl)thiophen-2-yl)-5-(trifluoromethyl)pyrimidin-2-yl)-1,2,3,4-tetrahydroisoquinolin-6-amine]
CS(=O)(=O)c1cc(-c2nc(Nc3cc4c(cc3Cl)CNCC4)ncc2C(F)(F)F)sc1C1CCOCC1 [Example 97, 7-chloro-N-(4-(4-(methylsulfonyl)-5-(tetrahydro-2H-pyran-4-yl)thiophen-2-yl)-5-(trifluoromethyl)pyrimidin-2-yl)-1,2,3,4-tetrahydroisoquinolin-6-amine]
CN1CCc2cc(Nc3ncc(C(F)(F)F)c(-c4cc(S(C)(=O)=O)cs4)n3)c(F)cc2C1 [Example 98, 7-fluoro-2-methyl-N-(4-(4-(methylsulfonyl)thiophen-2-yl)-5-(trifluoromethyl)pyrimidin-2-yl)-1,2,3,4-tetrahydroisoquinolin-6-amine]
CS(=O)(=O)c1csc(-c2nc(Nc3cc4c(cc3Cl)CCNC4)ncc2C(F)(F)F)c1 [Example 99, 6-chloro-N-(4-(4-(methylsulfonyl)thiophen-2-yl)-5-(trifluoromethyl)pyrimidin-2-yl)-1,2,3,4-tetrahydroisoquinolin-7-amine]
CN1CCc2cc(Cl)c(Nc3ncc(C(F)(F)F)c(-c4cc(S(C)(=O)=O)cs4)n3)cc2C1 [Example 100, 6-chloro-2-methyl-N-(4-(4-(methylsulfonyl)thiophen-2-yl)-5-(trifluoromethyl)pyrimidin-2-yl)-1,2,3,4-tetrahydroisoquinolin-7-amine]
CS(=O)(=O)c1csc(-c2nc(Nc3ccc4c(c3)CNCC4)ncc2C(F)(F)F)c1 [Example 101, N-[4-(4-methanesulfonylthiophen-2-yl)-5-(trifluoromethyl)pyrimidin-2-yl]-1,2,3,4-tetrahydroisoquinolin-7-amine]
CN1CCc2ccc(Nc3ncc(C(F)(F)F)c(-c4cc(S(C)(=O)=O)cs4)n3)cc2C1 [Example 102, N-[4-(4-methanesulfonylthiophen-2-yl)-5-(trifluoromethyl)pyrimidin-2-yl]-2-methyl-1,2,3,4-tetrahydroisoquinolin-7-amine]
CN1CCN(c2ccc(Nc3ncc(C(F)(F)F)c(-c4cc(S(C)(=O)=O)cs4)n3)cc2)CC1 [Example 103, N-(4-(4-methylpiperazin-1-yl)phenyl)-4-(4-(methylsulfonyl)thiophen-2-yl)-5-(trifluoromethyl)pyrimidin-2-amine]
CS(=O)(=O)c1cc(-c2nc(Nc3cc4c(cc3Cl)CNCC4)ncc2C(F)(F)F)sc1C1CCS(=O)(=O)CC1 [Example 104, 4-(5-(2-((7-chloro-1,2,3,4-tetrahydroisoquinolin-6-yl)amino)-5-(trifluoromethyl)pyrimidin-4-yl)-3-(methylsulfonyl)thiophen-2-yl)tetrahydro-2H-thiopyran 1,1-dioxide]
CS(=O)(=O)c1csc(-c2nc(Nc3ccc4c(c3)CCNC4)ncc2C(F)(F)F)c1 [Example 105, N-(4-(4-(methylsulfonyl)thiophen-2-yl)-5-(trifluoromethyl)pyrimidin-2-yl)-1,2,3,4-tetrahydroisoquinolin-6-amine]

IC50, 100 to 500 nM:
Cc1c(S(C)(=O)=O)csc1-c1nc(Nc2cc3c(cc2Cl)CNCC3)ncc1C(F)(F)F [Example 79, 7-chloro-N-(4-(3-methyl-4-(methylsulfonyl)thiophen-2-yl)-5-(trifluoromethyl)pyrimidin-2-yl)-1,2,3,4-tetrahydroisoquinolin-6-amine]
CS(=O)(=O)c1csc(-c2nc(Nc3cc4c(cc3Cl)CN(CC(F)(F)F)CC4)ncc2C(F)(F)F)c1 [Example 108, 7-chloro-N-[4-(4-methylsulfonyl-2-thienyl)-5-(trifluoromethyl)pyrimidin-2-yl]-2-(2,2,2-trifluoroethyl)-3,4-dihydro-1H-isoquinolin-6-amine]

IC50, 10 to 50 nM:
CS(=O)(=O)c1csc(-c2nc(Nc3cc4c(cc3Cl)CNCC4)ncc2C2CC2)c1 [Example 89, 7-chloro-N-(5-cyclopropyl-4-(4-(methylsulfonyl)thiophen-2-yl)pyrimidin-2-yl)-1,2,3,4-tetrahydroisoquinolin-6-amine]
COCc1sc(-c2nc(Nc3cc4c(cc3Cl)CNCC4)ncc2C(F)(F)F)cc1S(C)(=O)=O [Example 96, 7-chloro-N-(4-(5-(methoxymethyl)-4-(methylsulfonyl)thiophen-2-yl)-5-(trifluoromethyl)pyrimidin-2-yl)-1,2,3,4-tetrahydroisoquinolin-6-amine]
CS(=O)(=O)c1csc(-c2nc(Nc3cc4c(cc3Cl)CN(C3CC3)CC4)ncc2C(F)(F)F)c1 [Example 107, 7-chloro-2-cyclopropyl-N-[4-(4-methylsulfonyl-2-thienyl)-5-(trifluoromethyl)pyrimidin-2-yl]-3,4-dihydro-1H-isoquinolin-6-amine]
